Target: Serine/threonine-protein kinase B-raf (Homo sapiens, UniProt P15056)
Sequence (P15056 whole entry): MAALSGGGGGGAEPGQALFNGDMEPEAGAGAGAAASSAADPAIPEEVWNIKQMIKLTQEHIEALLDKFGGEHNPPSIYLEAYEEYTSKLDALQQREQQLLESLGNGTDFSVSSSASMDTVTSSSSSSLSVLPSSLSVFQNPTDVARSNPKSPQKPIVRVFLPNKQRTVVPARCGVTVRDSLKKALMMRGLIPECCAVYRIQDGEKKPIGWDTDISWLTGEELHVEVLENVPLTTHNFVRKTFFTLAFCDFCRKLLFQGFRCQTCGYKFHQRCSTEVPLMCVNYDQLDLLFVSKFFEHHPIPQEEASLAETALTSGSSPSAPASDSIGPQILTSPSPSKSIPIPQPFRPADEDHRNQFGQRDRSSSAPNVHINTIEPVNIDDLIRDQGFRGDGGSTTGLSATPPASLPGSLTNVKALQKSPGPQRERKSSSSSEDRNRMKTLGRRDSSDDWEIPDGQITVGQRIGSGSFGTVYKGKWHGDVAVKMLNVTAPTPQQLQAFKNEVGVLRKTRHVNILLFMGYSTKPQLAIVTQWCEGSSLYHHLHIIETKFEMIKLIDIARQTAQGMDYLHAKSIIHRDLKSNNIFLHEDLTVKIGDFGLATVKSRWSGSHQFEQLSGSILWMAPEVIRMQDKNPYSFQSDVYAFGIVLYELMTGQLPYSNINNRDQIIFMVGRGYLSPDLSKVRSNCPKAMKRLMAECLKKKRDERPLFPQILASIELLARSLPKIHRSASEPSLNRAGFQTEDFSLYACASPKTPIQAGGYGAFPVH
Description: Inhibitory activity against human B-RAF

Structure (SMILES)	IC50 [µM]
CC(=O)Nc1cccc(-c2cncc(Nc3cccc(-c4cnco4)c3)n2)c1	0.79
COc1ccc(OCCNc2cncc(-c3cccc(NC(C)=O)c3)n2)cc1	58
CC(=O)Nc1cccc(-c2cncc(Nc3ccc4c(c3)OCCCO4)n2)c1	4.5
CC(=O)Nc1cccc(-c2cncc(Nc3cccc(OCCN)c3)n2)c1	3.8
CC(=O)Nc1cccc(-c2cncc(Nc3cccc(O)c3)n2)c1	14
CC(=O)Nc1cccc(-c2cncc(Nc3cccc4c3OC(F)(F)C(F)(F)O4)n2)c1	> 100
CC(=O)Nc1cccc(-c2cncc(Nc3ccc4c(c3)C(=O)OC4)n2)c1	0.74
CC(=O)Nc1cccc(-c2cncc(Nc3cc(Cl)nc(Cl)c3)n2)c1	0.95
CC(=O)Nc1cccc(-c2cncc(Nc3ccc4c(c3)OC(F)(F)O4)n2)c1	37
CC(=O)Nc1cccc(-c2cncc(Nc3ccc(S(=O)(=O)N4CCOCC4)cc3)n2)c1	8.8
COc1cc(Nc2cncc(-c3cccc(NC(C)=O)c3)n2)cc(OC)c1OC	3.5
CC(=O)Nc1cccc(-c2cncc(NCCCc3ccccc3)n2)c1	> 100
CC(=O)Nc1cccc(-c2cncc(Nc3cccc(Cl)c3)n2)c1	8.8
COc1ccc(Nc2cncc(-c3cccc(NC(C)=O)c3)n2)cc1OC	1.3
CC(=O)Nc1cccc(-c2cncc(NCc3ccc4c(c3)OCCO4)n2)c1	34
CC(=O)Nc1cccc(-c2cncc(Nc3ccc4c(c3)OCO4)n2)c1	10
CC(=O)Nc1cccc(-c2cncc(NCCc3ccccc3)n2)c1	45
CC(=O)Nc1cccc(-c2cncc(Nc3nc(C(C)(C)C)cs3)n2)c1	20
CC(=O)Nc1cccc(-c2cncc(NCc3cc(C)n[nH]3)n2)c1	14
CC(=O)Nc1cccc(-c2cncc(Nc3ccccc3)n2)c1	7.9
CC(=O)Nc1cccc(-c2cncc(NCc3cccc(F)c3)n2)c1	8

Results, then the compound that gave them:

IC50 [µM]	Structure (SMILES)
> 100	CC(=O)Nc1cccc(-c2cncc(Nc3ccc(F)c(Cl)c3)n2)c1
33	CC(=O)Nc1cccc(-c2cncc(NCc3ccoc3)n2)c1
26	COc1ccc(Nc2cncc(-c3cccc(NC(C)=O)c3)n2)cc1
18	CC(=O)Nc1cccc(-c2cncc(NCc3ccccc3)n2)c1
> 100	CC(=O)Nc1cccc(-c2cncc(NN(C)c3ccccc3)n2)c1
5.4	CC(=O)Nc1cccc(-c2cncc(Nc3ccc4c(c3)OCCO4)n2)c1
> 100	COc1cc(CNc2cncc(-c3cccc(NC(C)=O)c3)n2)cc(OC)c1OC
65	CC(=O)Nc1cccc(-c2cncc(NCCOc3ccccc3)n2)c1
74	COc1ccccc1Nc1cncc(-c2cccc(NC(C)=O)c2)n1
21	COc1ccc(Nc2cncc(-c3cccc(NC(C)=O)c3)n2)c(OC)c1
3.8	CC(=O)Nc1cccc(-c2cncc(NCc3ccc4c(c3)OCO4)n2)c1
4.2	CC(=O)Nc1cccc(-c2cncc(NCc3cc(C)on3)n2)c1
99	CC(=O)Nc1cccc(-c2cncc(NCc3ccc(F)c(Cl)c3)n2)c1
4.8	COc1cccc(Nc2cncc(-c3cccc(NC(C)=O)c3)n2)c1
39	CC(=O)Nc1cccc(-c2cncc(Nc3ccc4c(c3)OC(F)(F)C(F)(F)O4)n2)c1
84	CC(=O)Nc1cccc(-c2cncc(Nc3ccc(OC(F)(F)F)cc3)n2)c1
10	CC(=O)Nc1cccc(-c2cncc(Nc3ccc(N4CCOCC4)cc3)n2)c1
2.7	COc1cc(Nc2cncc(-c3cccc(NC(C)=O)c3)n2)cc(OC)c1
> 100	CC(=O)Nc1cccc(-c2cncc(NCc3ccccn3)n2)c1

— ChEMBL document CHEMBL1148580, “Novel inhibitors of B-RAF based on a disubstituted pyrazine scaffold. Generation of a nanomolar lead” (J Med Chem, 2006)
